Measurements as given in ChEMBL document CHEMBL1155989, “Discovery of novel diarylketoxime derivatives as selective and orally active melanin-concentrating hormone 1 receptor antagonists” (Bioorg Med Chem Lett, 2009).

What was measured:
[1] = Metabolic stability in human liver microsomes assessed as compound remaining after 30 mins; format: ADME, Microsome; details: read-out: Stability
[2] = Metabolic stability in rat liver microsomes assessed as compound remaining after 30 mins; format: ADME, Microsome; details: read-out: Stability
[3] = Metabolic stability in mouse liver microsomes assessed as compound remaining after 30 mins; format: ADME, Microsome; details: read-out: Stability
[4] = Ratio of drug level in brain to plasma of Sprague-Dawley rat at 10 mg/kg, po after 2 hrs; format: ADME, organism-based; set-up: dose 10 mg/kg, route oral
[5] = Ratio of drug level in brain to plasma of diet-induced obese C57BL/6J mouse at 30 mg/kg, po after 24 hrs; format: ADME, organism-based; set-up: dose 30 mg/kg, route oral
Brain [6] = experiment: Drug level in diet-induced obese C57BL/6J mouse brain at 30 mg/kg, po after 24 hrs; format: ADME, organism-based; set-up: dose 30 mg/kg, route oral; details: in vivo
[7] = Drug level in Sprague-Dawley rat cerebrospinal fluid at 10 mg/kg, po after 2 hrs; format: ADME, organism-based; set-up: dose 10 mg/kg, route oral; details: read-out: Drug uptake
[8] = Volume of distribution at steady state in Sprague-Dawley rat at 1 mg/kg, iv; format: ADME, organism-based; set-up: dose 1 mg/kg, route intravenous; details: in vivo, read-out: Vdss
[9] = Plasma concentration in diet-induced obese C57BL/6J mouse at 30 mg/kg, po after 24 hrs; format: ADME, organism-based; set-up: dose 30 mg/kg, route oral
[10] = Half life in Sprague-Dawley rat at 1 mg/kg, iv; format: ADME, organism-based; set-up: dose 1 mg/kg, route intravenous; details: in vivo
[11] = Plasma concentration in Sprague-Dawley rat at 10 mg/kg, po after 2 hrs; format: ADME, organism-based; set-up: dose 10 mg/kg, route oral
Brain [12] = experiment: Drug level in Sprague-Dawley rat brain at 10 mg/kg, po after 2 hrs; format: ADME, organism-based; set-up: dose 10 mg/kg, route oral; details: in vivo
[13] = Tmax in diet-induced obese C57BL/6J mouse at 30 mg/kg, po; format: ADME, organism-based; set-up: dose 30 mg/kg, route oral; details: in vivo
[14] = Cmax in Sprague-Dawley rat at 3 mg/kg, po; format: ADME, organism-based; set-up: dose 3 mg/kg, route oral; details: in vivo
Rattus norvegicus = experiment: AUC (0 to infinity) in Sprague-Dawley rat at 3 mg/kg, po; format: ADME, organism-based, Plasma; set-up: time infinity, dose 3 mg/kg, route oral; details: in vivo
[15] = Cmax in diet-induced obese C57BL/6J mouse at 30 mg/kg, po; format: ADME, organism-based; set-up: dose 30 mg/kg, route oral; details: in vivo
[16] = AUC (0 to infinity) in diet-induced obese C57BL/6J mouse at 30 mg/kg, po; format: ADME, organism-based; set-up: time infinity, dose 30 mg/kg, route oral; details: plasma
[17] = Oral bioavailability in Sprague-Dawley rat; format: ADME, organism-based; details: in vivo
[18] = Tmax in diet-induced obese C57BL/6J mouse at 10 mg/kg, po; format: ADME, organism-based; set-up: dose 10 mg/kg, route oral; details: in vivo
[19] = Cmax in diet-induced obese C57BL/6J mouse at 10 mg/kg, po; format: ADME, organism-based; set-up: dose 10 mg/kg, route oral; details: in vivo
[20] = AUC (0 to infinity) in diet-induced obese C57BL/6J mouse at 10 mg/kg, po; format: ADME, organism-based; set-up: time infinity, dose 10 mg/kg, route oral; details: plasma
[21] = Plasma clearance in Sprague-Dawley rat at 1 mg/kg, iv; format: ADME, organism-based; set-up: dose 1 mg/kg, route intravenous

O=C(C(c1ccc(F)c(F)c1)n1cccn1)N(CCF)CCCN1CCC2(CC1)OCc1cc(F)ncc12 (centres undefined)
remaining at 0.5 h [1]: 12%
remaining at 0.5 h [2]: 31%
remaining at 0.5 h [3]: 22%

CCO/N=C(/c1ccc(F)c(F)c1)c1ccc(CN2CCC3(CC2)OCc2cc(F)ncc23)cn1
remaining at 0.5 h [1]: 0%
remaining at 0.5 h [2]: 2%
remaining at 0.5 h [3]: 11%

CCO/N=C(/c1ccc(F)c(F)c1)c1ccc(CN2CCC3(CC2)OCc2cn(C)c(=O)cc23)cn1
Kp at 2 h [4]: 0.49
Kp at 24 h [5]: 0.43
Drug uptake (Brain [6]): 0.052 nmol/g
concentration at 2 h [7]: 0.13 µM
Vd [8]: 1.6 L/kg
concentration at 24 h [9]: 0.119 µM
half-life [10]: 1.4 h
concentration at 2 h [11]: 4.5 µM
Drug uptake (Brain [12]): 2.2 nmol/g
Tmax [13]: 2 h
Cmax [14]: 1.85 µM
AUC (Rattus norvegicus): 6.57 µM·h
Cmax [15]: 15.6 µM
AUC(0-inf) [16]: 90.7 µM·h
remaining at 0.5 h [1]: 68%
remaining at 0.5 h [2]: 71%
bioavailability [17]: 87%
Tmax [18]: 2 h
Cmax [19]: 4.27 µM
AUC(0-inf) [20]: 15.4 µM·h
remaining at 0.5 h [3]: 57%
clearance [21]: 13 mL/min/kg

CCO/N=C(/c1ccc(F)c(F)c1)c1ccc(CN2CCC3(CC2)OCc2cc(=O)n(C)cc23)cn1
remaining at 0.5 h [1]: 77%
remaining at 0.5 h [2]: 84%
remaining at 0.5 h [3]: 74%

Fc1cc2c(cn1)C1(CCN(Cc3ccc(Oc4ccc(F)c(F)c4)cc3)CC1)OC2
remaining at 0.5 h [1]: 17%
remaining at 0.5 h [2]: 4%
remaining at 0.5 h [3]: 3%
